Our source for the IC50 values is patent US20080293712A1, “Benzo[C][2,7]Naphtyridine Derivatives, Methods of Making Thereof and Methods of Use Thereof” (WYETH, priority 2007, published 2008).

pIC50: −log10 of the molar value.

One experiment concerns the target T1, PDK-1 (Homo sapiens, UniProt O15530).
T1 sequence (O15530 1-556): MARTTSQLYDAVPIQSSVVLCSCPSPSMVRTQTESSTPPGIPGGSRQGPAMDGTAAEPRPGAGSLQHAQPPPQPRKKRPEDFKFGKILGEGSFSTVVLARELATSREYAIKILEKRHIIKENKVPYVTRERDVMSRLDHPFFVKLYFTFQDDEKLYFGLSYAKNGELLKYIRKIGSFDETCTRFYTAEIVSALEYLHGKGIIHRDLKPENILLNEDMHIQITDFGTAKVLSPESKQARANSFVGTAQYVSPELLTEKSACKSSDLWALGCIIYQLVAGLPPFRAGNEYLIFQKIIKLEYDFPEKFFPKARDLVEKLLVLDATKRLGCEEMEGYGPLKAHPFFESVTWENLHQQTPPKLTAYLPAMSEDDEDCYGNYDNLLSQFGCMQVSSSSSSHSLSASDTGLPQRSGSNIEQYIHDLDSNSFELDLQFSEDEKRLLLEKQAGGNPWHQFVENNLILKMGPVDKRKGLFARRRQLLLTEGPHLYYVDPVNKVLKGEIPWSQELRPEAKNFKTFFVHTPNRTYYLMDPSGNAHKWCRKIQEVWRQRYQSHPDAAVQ
The experiment in a line: PDK-1 kinase inhibition ELISA assay (phosphorylation of His6-tagged SGK1 S422D by PDK-1). Type of experiment: biochemical.
Conditions: not given
(In an ELISA, binding on a coated surface is turned into a signal by an enzyme label.)
A word on the pIC50: it is −log10 of the IC50, conventionally taken in molar units. Consider `COCCNc1cc2c(cnc3cc(OCCOC)c(OC)cc32)c(N)n1` [Ia-55, 9-methoxy-8-(2-methoxyethoxy)-N^2-(2-methoxyethyl)benzo[c]-2,7-naphthyridine-2,4-diamine], for which the pIC50 is 5.13.
The same measure, in the same setting: then `COCCOc1cc2ncc3c(N)nc(N(C)C)cc3c2cc1OC` [Ia-60, 9-Methoxy-8-(2-methoxyethoxy)-N^2,N^2-dimethylbenzo[c]-2,7-naphthyridine-2,4-diamine], with 6.13.

The same experiment, now with this note: PDK-1 ELISA, Table 11; read-out: Average IC50.
As to `COc1cc2ncc3c(NO)nc(-c4cncc(OC[C@@H](N)Cc5c[nH]c6ccccc56)c4)cc3c2cc1OC` [Compound I-1, 2-(5-{[(2S)-2-amino-3-(1H-indol-3-yl)propyl]oxy}pyridin-3-yl)-N-hydroxy-8,9-dimethoxybenzo[c]-2,7-naphthyridin-4-amine], the pIC50 is 7.10.
The same measure, in the same setting: then `COc1cc2ncc3c(NO)nc(-c4cncc(OC[C@@H](N)Cc5cccc(Cl)c5)c4)cc3c2cc1OC` [Compound I-2, 2-(5-{[(2S)-2-amino-3-(3-chlorophenyl)propyl]oxy}pyridin-3-yl)-N-hydroxy-8,9-dimethoxybenzo[c]-2,7-naphthyridin-4-amine], with less than 7.00; and `COCCOc1cc2ncc3c(NCc4cccnc4)nc(NCc4cccnc4)cc3c2cc1OC` [Compound I-3, 9-methoxy-8-(2-methoxyethoxy)-N,N′-bis(pyridin-3-ylmethyl)benzo[c]-2,7-naphthyridine-2,4-diamine], with 5.05; and `CCN1CCCC1CNc1cc2c(cnc3cc(OCCOC)c(OC)cc32)c(NCC2CCCN2CC)n1` (stereo not drawn) [Compound I-4, N,N′-bis[(1-ethylpyrrolidin-2-yl)methyl]-9-methoxy-8-(2-methoxyethoxy)benzo[c]-2,7-naphthyridine-2,4-diamine], with less than 4.70.
With `COc1cc2c(cc1OCCN1CCN(C)CC1)ncc1c(N)nc(-n3ccnc3)cc12` [Ia-10, 2-(1H-imidazol-1-yl)-9-methoxy-8-(2-(4-methylpiperazin-1-yl)ethoxy)benzo[c][2,7]naphthyridin-4-amine], the pIC50 is 5.94.
On to `COc1cc2c(cc1OCC1CCN(C)CC1)ncc1c(N)nc(-c3ccncc3)cc12` [Ia-22, 9-Methoxy-8-[(1-methylpiperidin-4-yl)methoxy]-2-pyridin-4-ylbenzo[c]-2,7-naphthyridin-4-amine], for which the pIC50 is 5.16.
On to `CCOc1cc2ncc3c(N)nc(-n4ccnc4)cc3c2cc1NC(=S)NCCN1CCOCC1` [Ia-26, N-[4-amino-8-ethoxy-2-(1H-imidazol-1-yl)benzo[c]-2,7-naphthyridin-9-yl]-N′-(2-morpholin-4-ylethyl)thiourea], for which the pIC50 was 6.26.
Turning to `Nc1nc(-n2ccnc2)cc2c1cnc1cc(Br)ccc12` [Ia-37, 8-Bromo-2-(1H-imidazol-1-yl)benzo[c]-2,7-naphthyridin-4-amine], the negative logarithm of the IC50 (pIC50) is 6.28.
For `COCCN(C)c1cc2ncc3c(N)nc(-c4cncc(OC[C@@H](N)Cc5ccccc5)c4)cc3c2cc1OC` [Ia-38, 2-(5-{[(2S)-2-amino-3-phenylpropyl]oxy}pyridine-3-yl)-9-methoxy-N^8-(2-methoxyethyl)-N^8-methylbenzo[c]-2,7-naphthyridin-4,8-diamine], the pIC50 was 7.16.
The same measure, in the same setting: next, `COc1cc2c(cc1N1CCOCC1)ncc1c(N)nc(-c3cncc(OC[C@@H](N)Cc4ccccc4)c3)cc12` [Ia-39, 2-(5-{[(2S)-2-Amino-3-phenylpropyl]oxy}pyridin-3-yl)-9-methoxy-8-morpholin-4-ylbenzo[c]-2,7-naphthyridin-4-amine]: 7.23; `COCCOc1cc2ncc3c(N)nc(N4CCCCC4C)cc3c2cc1OC` (stereo not drawn) [Ia-43, 9-methoxy-8-(2-methoxyethoxy)-2-(2-methylpiperidin-1-yl)benzo[c]-2,7-naphthyridin-4-amine]: 5.61.
Regarding `COCCOc1cc2ncc3c(N)nc(N(C)CC4OCCO4)cc3c2cc1OC` [Ia-44, N^2-(1,3-dioxolan-2-ylmethyl)-9-methoxy-8-(2-methoxyethoxy)-N^2-methylbenzo[c]-2,7-naphthyridine-2,4-diamine], the pIC50 was 5.57.
For `COCCOc1cc2ncc3c(N)nc(N(C)C(C)C)cc3c2cc1OC` [Ia-45, N^2-isopropyl-9-methoxy-8-(2-methoxyethoxy)-N^2-methylbenzo[c]-2,7-naphthyridine-2,4-diamine], the pIC50 was 5.84.
`CCOc1cc2ncc3c(N)nc(-c4ccc(Br)cc4)cc3c2cc1OCC` [Ia-47, 2-(4-bromophenyl)-8,9-diethoxybenzo[c]-2,7-naphthyridin-4-amine]: the negative logarithm of the IC50 (pIC50) was less than 4.70.
For the compound `COCCOc1cc2ncc3c(N)nc(NCCN4CCCCC4)cc3c2cc1OC` [Ia-49, 9-methoxy-8-(2-methoxyethoxy)-N^2-(2-piperidin-1-ylethyl)benzo[c]-2,7-naphthyridine-2,4-diamine], the pIC50 was less than 4.70.
Regarding `COCCOc1cc2ncc3c(N)nc(N4CCC(C)CC4)cc3c2cc1OC` [Ia-50, 9-methoxy-8-(2-methoxyethoxy)-2-(4-methylpiperidin-1-yl)benzo[c]-2,7-naphthyridin-4-amine], the pIC50 was 5.61.
Still for that read-out and setting: next, `COCCOc1cc2ncc3c(N)nc(N4CCC(CCO)CC4)cc3c2cc1OC` [Ia-51, 2-{1-[4-amino-9-methoxy-8-(2-methoxyethoxy)benzo[c]-2,7-naphthyridin-2-yl]piperidin-4-yl}ethanol]: 5.43.
`COCCOc1cc2ncc3c(N)nc(N(C)C4CCN(C)C4)cc3c2cc1OC` (stereo not drawn) [Ia-52, 9-methoxy-8-(2-methoxyethoxy)-N2-methyl-N^2-(1-methylpyrrolidin-3-yl)benzo[c]-2,7-naphthyridine-2,4-diamine]: the negative logarithm of the IC50 (pIC50) was 5.48.
On to `COCCOc1cc2ncc3c(N)nc(N4CCC(O)CC4)cc3c2cc1OC` [Ia-53, 1-[4-amino-9-methoxy-8-(2-methoxyethoxy)benzo[c]-2,7-naphthyridin-2-yl]piperidin-4-ol], for which the pIC50 was 5.69.
With `COCCOc1cc2ncc3c(N)nc(N(C)CCOC)cc3c2cc1OC` [Ia-54, 9-methoxy-8-(2-methoxyethoxy)-N^2-(2-methoxyethyl)-N^2-methylbenzo[c]-2,7-naphthyridine-2,4-diamine], the negative logarithm of the IC50 (pIC50) is 5.65.
Still for that read-out and setting: next, `COCCOc1cc2ncc3c(N)nc(N4CCC[C@@H]4COC)cc3c2cc1OC` [Ia-56, 9-methoxy-8-(2-methoxyethoxy)-2-[(2R)-2-(methoxymethyl)pyrrolidin-1-yl]benzo[c]-2,7-naphthyridin-4-amine]: 5.63; `COCCOc1cc2ncc3c(N)nc(N4CCOCC4)cc3c2cc1OC` [Ia-57, 9-Methoxy-8-(2-methoxyethoxy)-2-morpholin-4-ylbenzo[c]-2,7-naphthyridin-4-amine]: 5.19; `COCCOc1cc2ncc3c(N)nc(OC)cc3c2cc1OC` [Ia-58, 2,9-Dimethoxy-8-(2-methoxyethoxy)benzo[c]-2,7-naphthyridin-4-amine]: 5.89.
On to `COCCOc1cc2ncc3c(N)nc(Cl)cc3c2cc1OC` [Ia-61, 2-Chloro-9-methoxy-8-(2-methoxyethoxy)benzo[c]-2,7-naphthyridin-4-amine], for which the negative logarithm of the IC50 (pIC50) is 5.58.
Consider `COCCOc1cc2ncc3c(N)nc(N4CCCC4)cc3c2cc1OC` [Ia-62, 9-Methoxy-8-(2-methoxyethoxy)-2-pyrrolidin-1-ylbenzo[c]-2,7-naphthyridin-4-amine], for which the negative-log IC50 (pIC50) is 5.73.
As for `COc1cc2ncc3c(N)nc(-c4cncc(OC[C@@H](N)CN5CCC(=O)CC5)c4)cc3c2cc1OC` [Ib-4, 1-[(2S)-2-amino-3-{[5-(4-amino-8,9-dimethoxybenzo[c]-2,7-naphthyridin-2-yl)pyridin-3-yl]oxy}propyl]piperidin-4-one], the pIC50 was 7.54.
Take `CCOC1(OCC)CCN(C[C@H](N)COc2cncc(-c3cc4c(cnc5cc(OC)c(OC)cc54)c(N)n3)c2)CC1` [Ib-5, 2-(5-{[(2S)-2-amino-3-(4,4-diethoxypiperidin-1-yl)propyl]oxy}pyridin-3-yl)-8,9-dimethoxybenzo[c]-2,7-naphthyridin-4-amine]: the negative-log IC50 (pIC50) is 7.59.
In the case of `COc1cc2ncc3c(N)nc(-c4cncc(OC[C@@H](N)CN(C)Cc5cccnc5)c4)cc3c2cc1OC` [Ib-6, (2S)-3-{[5-(4-amino-8,9-dimethoxybenzo[c]-2,7-naphthyridin-2-yl)pyridin-3-yl]oxy}-N1-methyl-N1-(pyridin-3-ylmethyl)propane-1,2-diamine], the negative logarithm of the IC50 (pIC50) was 8.40.
As for `COc1cc2ncc3c(N)nc(-c4cncc(OC[C@@H](N)COS(C)(=O)=O)c4)cc3c2cc1OC` [Ib-7, (2R)-2-Amino-3-{[5-(4-amino-8,9-dimethoxybenzo[c]-2,7-naphthyridin-2-yl)pyridin-3-yl]oxy}propyl methanesulfonate], the negative logarithm of the IC50 (pIC50) was 7.80.
On the same count and under the same terms, then `COc1cc2ncc3c(N)nc(-c4cncc(OC[C@@H](N)CN(C)Cc5cccc(F)c5)c4)cc3c2cc1OC` [Ib-8, (2S)-3-{[5-(4-amino-8,9-dimethoxybenzo[c]-2,7-naphthyridin-2-yl)pyridin-3-yl]oxy}-N1-(3-fluorobenzyl)-N1-methylpropane-1,2-diamine], with 8.30.
As for `COc1cc2ncc3c(N)nc(-c4cncc(OC[C@@H](N)Cn5ccnc5)c4)cc3c2cc1OC` [Ib-9, 2-(5-{[(2S)-2-amino-3-(1H-imidazol-1-yl)propyl]oxy}pyridin-3-yl)-8,9-dimethoxybenzo[c]-2,7-naphthyridin-4-amine], the pIC50 is 7.70.
